According to patent US20250325636A1, “USE OF ENDOTHELIN RECEPTOR TYPE B AGONISTS FOR THE TREATMENT OF AORTIC VALVE STENOSIS” (INSTITUT NATIONAL DE LA SANTÉ ET DE LA RECHERCHE MÉDICALE, priority 2022, published 2025):

Tested on: valvular interstitial cells (VIC)
Test: Calcium content of valvular interstitial cells cultured in pro-calcifying medium containing inorganic phosphate (o-cresolphtalein-based assay)
Format: cell-based, human
Settings: VIC in procalcifying conditions containing inorganic phosphate (Pi), 10 days, compared to non-treated VIC
Procedure: Valvular endothelial cells (VEC), isolated from human aortic valves, were cultured in a cell perfusion system to assess ET-1 production in different fluid flow shear stress conditions. In addition, valvular interstitial cells (VIC) were cultured in a pro-calcifying culture medium containing inorganic phosphate (Pi) with or without antagonists of either the ETA or ETB receptor antagonists or with the agonist of the ETB receptor IRL 1620 during 10 days. Aortic valves from rats were also cultured in ex vivo and stimulated with ET-1 antagonists. Calcium content was assessed using an o-cresolphtalein-based assay and fluorescence by Osteosens. VEC prepro-ET-1 and VIC osteogenic mRNA expression levels were evaluated by RTqPCR.

N-Succinyl-[Glu9, Alal U5]-Endothelin 1 fragment 8-21 [IRL-1620]
Calcium content of VIC: decreased the calcium content of VIC
Calcium content of VIC (listed as IRL 1620): decreases their calcium content
